A short description of series [1]: DPPH free radical scavenging assay. As for the experimental part:
The antioxidant activity of synthesized compounds was evaluated using the DPPH free-radical scavenging assay, following the methodology outlined by[34]. This assay is based on the principle that the stable free radical DPPH undergoes a color change from deep purple to yellow upon reduction, indicating hydrogen donation from antioxidant compounds. Different concentrations (3.12, 6.25, 12.5, 25, 50, 100, and 200 µg/mL) of test compounds were prepared in methanol. A 200 µL aliquot of each concentration was mixed with 50 µL of freshly prepared DPPH solution (0.659 mM). The reaction mixtures were incubated at room temperature for 20 min in the dark. Absorbance was recorded at 510 nm using an ELISA microplate reader. Trolox was employed as the reference antioxidant, and the percentage of inhibition was calculated using the following equation:
% Inhibition = [(A0 − A1)/A0] × 100.
Where A0 is the absorbance of the control, and A1 is the absorbance of the sample[34].
A general note: Loss of DPPH colour is used to gauge radical scavenging.

A short description of another series: Cytotoxicity MTT assay. It is filed as cell-based. The conditions noted are these: mouse, 3T3 fibroblast cells, 48 h, Mean ± SD, n = 3, read-out: IC₅₀ cytotoxicity MTT. As for the experimental part:
(§1) The cytotoxic effects of the selected compounds were evaluated against the 3T3 fibroblast cell line (Sigma-Aldrich, product no. 90020107) using the MTT (3-(4,5-dimethylthiazol-2-yl)−2,5-diphenyl tetrazolium bromide) assay, following the protocol established by Mosmann[38]. A cell suspension containing 1 × 10⁵ cells per well was seeded into a 96-well plate and incubated at 37 °C with 5% CO₂ for 48 h. The cells were then treated with different concentrations of test compounds (4, 16, 63, 250, and 1000 µg/mL, dissolved in DMSO) and incubated for an additional 48 h. Following incubation, 180 µL of MTT solution (5 mg/mL in PBS) was added to each well and incubated for 4 h. The formazan crystals formed were solubilized, and absorbance was measured at 570 nm using an ELISA reader. Celecoxib was used as a positive control.
Background: Formazan colour is commonly taken as a measure of viable cells.

In another series the test system is 3T3 fibroblast cell line. The series can be described thus: Cytotoxicity MTT assay. The class given is cell-based. As for the experimental part: as §1
Series [2] concerns STZ-induced diabetic rats. The series can be described thus: Fasting blood glucose and oral glucose tolerance test (OGTT). The class given is in vivo, Sprague Dawley rats. The conditions noted are these: for OGTT (after 120 min): 120 min after glucose 2.0 g/kg; for Fasting blood glucose: Table 7, mean ± SD, 5 rats per group; for FBG and OGTT reduction in words: compared to diabetic control. As for the experimental part:
[…] After 5 days of streptozotocin injection, the tail vein blood will be collected to determine the fasting blood glucose (FBG) level. Only rats with FBG over 200 mg/dl will be considered diabetic and used for further experimentation.
This assay will be performed in animals after fasting for an overnight (12 h). Then, rats will receive a bolus of glucose (2.0 g/kg body weight) followed by test molecule or control and plasma glucose will be measured from blood collected from tail vein at 0, 30, 60, 90 and 120 min after glucose administration. Plasma glucose levels will be analyzed using commercially available glucometer kits[40].

In series [3] the test system is STZ-induced diabetic rats. In words: Effect on FBG, body weight and HbA1C over 6 weeks. The class given is in vivo, Sprague Dawley rats. More on the design: % Reduction in FBG: concentration or dose not given beside the values. The conditions noted are these: for BW (Day 0) / FBG (Day 0): Day 0, baseline; for % Change in BW / % Reduction in FBG: Day 0 to Day 42; for BW (Day 42) / FBG (Day 42): Day 42 of treatment; for HbA1C: end of 6-week treatment. As for the experimental part: (§2) Diabetes will be induced in rats (n = 6 per group) by a single intraperitoneal injection of 60-100 mg/kg body weight (BW) streptozotocin dissolved in normal saline. After 5 days of streptozotocin injection, the tail vein blood will be collected to determine the fasting blood glucose (FBG) level. Only rats with FBG over 200 mg/dl will be considered diabetic and used for further experimentation.
Diabetic Rats (n = 6 per group) will be randomly assigned to groups of six animals each in order to examine the impact of synthetic derivatives on FBG level, BW, and HbA1C. The course of treatment will last for six weeks. At the beginning of the experiment and at weekly intervals during the first 42 days of therapy, the FBG level and BW will be measured. Rats will be denied food for 12 h while fasting, but they will have unrestricted access to water. Commercial glucose oxidase kits will be used to measure the blood glucose level. Blood 7 will be collected through cardiac puncture at the end of study period and levels of HbA1C will be determined. Metformin will be used as standard for comparison purpose.

Series [4] has as its target T1, α-glucosidase (EC3.2.1.20) (Saccharomyces cerevisiae, UniProt P53341).
T1 construct: purchased Sigma-Aldrich
The series can be described thus: α-Glucosidase inhibitory activity assay. The class given is biochemical. The conditions noted are these: for inhibition at 200 µg/mL: read-out: %Inhibition (200 µg/ml) alpha glucosidase. As for the experimental part: The ability of the synthesized compounds to inhibit α-glucosidase was determined as per the method described by[35]. […] After incubation at 37 °C for 10 min, the reaction was initiated by adding 25 µL of substrate (4 mM) and further incubating at 37 °C for 20 min. The absorbance was measured at 405 nm.

Series [5] relates to STZ-induced diabetic rats. The series can be described thus: Physiological parameters (lipid profile). It is filed as in vivo, Sprague Dawley rats. The conditions noted are these: Fig. 1; for HDL / LDL / triglycerides: after treatment. As for the experimental part: as §2
Animals will be sacrificed after […] of treatment and parameters including LDL, triglycerides, HDL cholesterol, and glucose will be determined by using KONELAB SYSTEM (Thermo Fisher Scientific, Finland) according to manufacturer’s guidelines.

[6] abbreviates: relative to positive control (diabetic rats), Fig. 2.

The structures appear in SMILES notation. ≈ marks a conversion by molar mass, not a printed value. Where “and” joins values, the source holds several entries; their conditions need not be identical. Equal values may be shown once. Entries after “also recorded” stand apart in the source; their conditions may differ.

T1 sequence (P53341 whole entry): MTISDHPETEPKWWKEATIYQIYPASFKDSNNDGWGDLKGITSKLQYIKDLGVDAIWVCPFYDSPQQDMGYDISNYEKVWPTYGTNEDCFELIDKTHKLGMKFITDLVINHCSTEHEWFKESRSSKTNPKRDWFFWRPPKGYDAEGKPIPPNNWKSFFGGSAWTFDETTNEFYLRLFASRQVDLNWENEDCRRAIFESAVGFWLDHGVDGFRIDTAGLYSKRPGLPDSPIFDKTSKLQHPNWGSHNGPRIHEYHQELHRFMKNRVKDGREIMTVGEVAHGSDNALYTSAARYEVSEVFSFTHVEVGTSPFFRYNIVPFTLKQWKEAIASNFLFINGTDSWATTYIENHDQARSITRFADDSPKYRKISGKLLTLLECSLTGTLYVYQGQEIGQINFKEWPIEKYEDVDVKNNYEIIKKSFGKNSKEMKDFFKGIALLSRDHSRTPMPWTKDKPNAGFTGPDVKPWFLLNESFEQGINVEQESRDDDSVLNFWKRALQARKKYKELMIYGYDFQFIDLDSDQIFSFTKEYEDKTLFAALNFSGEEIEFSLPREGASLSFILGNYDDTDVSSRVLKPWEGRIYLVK

With `O=C1O[C@H]([C@@H](O)CO)C(O)=C1O` [Ascorbic Acid, reference compound], the “DPPH free radical scavenging % inhibition” value in series [1] (3.12 µg/mL) is reported as 30.2 ± 1.9%; in series [1] (6.25 µg/mL) it was 50.6 ± 2.5%; in series [1] (12.5 µg/mL), 68.9 ± 2.8%; in series [1] (25 µg/mL) it was 82.3 ± 3.1%; in series [1] (50 µg/mL) it was 89.6 ± 3.3%; in series [1] (100 µg/mL), 94.2 ± 3.5%. The “DPPH free radical scavenging % inhibition” value in series [1] (200 µg/mL) is recorded as 96.8 ± 3.7%.
Take `Cc1ccc(-c2cc(C(F)(F)F)nn2-c2ccc(S(N)(=O)=O)cc2)cc1` [Celecoxib, reference compound]: the IC50 at 48 h in “Cytotoxicity MTT assay” amounted to 342 ± 9.7 µg/mL (≈ 897 µM). Moreover, the Cytotoxicity category entry in the series with 3T3 fibroblast cell line is reported as “Moderate cytotoxicity”.
As for `O=C1CN(S(=O)(=O)c2cccc(C(=O)O)c2)C(=S)N1` [FP2, 3-(4-oxo-2-sulfanylideneimidazolidine-1-sulfonyl)benzoic acid], in series [2], the “OGTT (after 120 min)” value stood at 288.0 ± 9.5 mg/dL; the Fasting blood glucose is 229.9 ± 7.6 mg/dL; the “FBG and OGTT reduction in words” value is given as “significant reductions”. Moreover, the “percentage reduction in FBG” value in series [2] (setting [6]) amounted to 18.5%. Further, in series [3], the “BW (Day 0)” value was 218.3 ± 7.5 g, the “FBG (Day 0)” value is given as 280.5 ± 10.1 mg/dL, the “% Change in BW” value is reported as −7.1% and the “% Reduction in FBG” value came out at 24.9%. In addition, in series [3], the “BW (Day 42)” value is recorded as 202.8 ± 7.9 g; the “FBG (Day 42)” value is 210.7 ± 9.6 mg/dL; the HbA1C is 7.5% and 7.5 ± 0.4%. For the same compound, the “IC₅₀ (concentration required to inhibit 50% of DPPH free radicals)” value in series [1] amounted to 52.4 ± 2.5 µg/mL. Further, the “DPPH free radical scavenging % inhibition” value in series [1] (3.12 µg/mL) was 18.4 ± 1.3%. Also, in series [1] (6.25 µg/mL), the “DPPH free radical scavenging % inhibition” value was found to be 31.3 ± 1.9%. The “DPPH free radical scavenging % inhibition” value in series [1] (12.5 µg/mL) was found to be 47.6 ± 2.4%. In series [1] (25 µg/mL), the “DPPH free radical scavenging % inhibition” value stood at 62.9 ± 2.8%. Also, the “DPPH free radical scavenging % inhibition” value in series [1] (50 µg/mL) is on record as 74.5 ± 3.1%. The “DPPH free radical scavenging % inhibition” value in series [1] (100 µg/mL) is recorded as 79.8 ± 3.2%. In series [1] (200 µg/mL), the “DPPH free radical scavenging % inhibition” value worked out at 82.6 ± 3.3%. Also, in series [4], the inhibition at 200 µg/mL was 48.1 ± 0.94%. Also, in “Cytotoxicity MTT assay”, the IC50 at 48 h turned out to be 845 ± 12.7 µg/mL (≈ 2810 µM). Further, the Cytotoxicity category entry with 3T3 fibroblast cell line is listed as “Low cytotoxicity”. Further, the “lipid profile effect in words” value in series [5] is “moderate improvements”.
Turning to `CC(=O)c1cccc(S(=O)(=O)N2CC(=O)NC2=S)c1` [FP4, 1-(3-acetylbenzene-1-sulfonyl)−2-sulfanylideneimidazolidin-4-one], in series [2], the “OGTT (after 120 min)” value stood at 275.2 ± 9.1 mg/dL and the Fasting blood glucose stood at 218.4 ± 7.3 mg/dL. Moreover, in series [2] (setting [6]), the “percentage reduction in FBG” value was 22.6% and the “percentage reduction in OGTT” value was 19.4%. In series [3], the “BW (Day 0)” value was found to be 215.9 ± 7.8 g, the “FBG (Day 0)” value worked out at 279.1 ± 9.7 mg/dL, the “% Change in BW” value is recorded as −4.7% and the “% Reduction in FBG” value is 28.9%. In addition, in series [3], the “BW (Day 42)” value stood at 205.7 ± 8.6 g, the “FBG (Day 42)” value is reported as 198.4 ± 8.3 mg/dL and the HbA1C was 7.2 ± 0.3%. In addition, the “DPPH free radical scavenging % inhibition” value in series [1] (3.12 µg/mL) turned out to be 22.1 ± 1.5%. Also, the “DPPH free radical scavenging % inhibition” value in series [1] (6.25 µg/mL) is 38.2 ± 2.1%. Also, the “DPPH free radical scavenging % inhibition” value in series [1] (12.5 µg/mL) is listed as 55.7 ± 2.6%. Also, the “DPPH free radical scavenging % inhibition” value in series [1] (25 µg/mL) stood at 71.6 ± 3.0%. For the same compound, the “DPPH free radical scavenging % inhibition” value in series [1] (50 µg/mL) worked out at 81.2 ± 3.5%. Moreover, the “DPPH free radical scavenging % inhibition” value in series [1] (100 µg/mL) came to 85.9 ± 3.7%. In series [1] (200 µg/mL), the “DPPH free radical scavenging % inhibition” value was 87.4 ± 3.9%. In series [4] (Mean ± SD, read-out: IC50 alpha glucosidase (converted)), the IC50 is 434 µM. For the same compound, in series [4], the inhibition at 200 µg/mL is 51.4 ± 1.25%. In addition, the IC50 at 48 h in “Cytotoxicity MTT assay” worked out at 598 ± 11.4 µg/mL (≈ 2010 µM). In addition, the Cytotoxicity category entry with 3T3 fibroblast cell line is “Moderate cytotoxicity”. In series [5], this compound yielded an HDL of 42.3 ± 2.5 mg/dL, an LDL of 54.8 ± 3.1 mg/dL and a triglycerides of 112.5 ± 6.2 mg/dL.
For `COc1ccc(S(=O)(=O)N2CC(=O)NC2=S)cc1C(=O)O` [FP6, 2-methoxy-5-(4-oxo-2-sulfanylideneimidazolidine-1-sulfonyl)benzoic acid], the “OGTT (after 120 min)” value in series [2] amounted to 307.5 ± 10.4 mg/dL. This compound had a Fasting blood glucose in series [2] of 249.1 ± 8.5 mg/dL. Also, the “FBG and OGTT reduction in words” value in series [2] is reported as “minor reductions”. Further, the “DPPH free radical scavenging % inhibition” value is 8.5 ± 0.8% in series [1] (3.12 µg/mL); 16.2 ± 1.1% in series [1] (6.25 µg/mL); 24.9 ± 1.6% in series [1] (12.5 µg/mL); 36.4 ± 2.2% in series [1] (25 µg/mL); 44.7 ± 2.5% in series [1] (50 µg/mL); 49.8 ± 2.6% in series [1] (100 µg/mL). Besides, the “DPPH free radical scavenging % inhibition” value in series [1] (200 µg/mL) worked out at 53.6 ± 2.8%. Also, the “alpha-glucosidase inhibition in words” value in series [4] was “inactive”. Moreover, in series [4], the inhibition at 200 µg/mL was 36.4 ± 1.03%. In addition, the IC50 at 48 h in “Cytotoxicity MTT assay” was greater than 900 µg/mL. Also, the Cytotoxicity category result with 3T3 fibroblast cell line is “negligible cytotoxicity; also recorded: Non-toxic”. Also, the “IC₅₀ cytotoxicity MTT” value in the series with 3T3 fibroblast cell line (48 h, Mean ± SD, n = 3) is listed as 930.4 ± 10.6 µg/mL.
Take `CN(C)C(=N)N=C(N)N` [Metformin, reference compound]: in series [2], the “OGTT (after 120 min)” value was 159.4 ± 8.3 mg/dL and the Fasting blood glucose is reported as 119.2 ± 6.5 mg/dL. In series [3], the “BW (Day 0)” value stood at 216.2 ± 8.0 g, the “FBG (Day 0)” value stood at 282.3 ± 10.5 mg/dL, the “% Reduction in FBG” value worked out at 49.5% and the “BW (Day 42)” value turned out to be 225.6 ± 9.4 g. Moreover, in series [3], the “FBG (Day 42)” value was 142.5 ± 7.8 mg/dL and the HbA1C was 6.1 ± 0.3%. In series [5], this compound showed an HDL of 49.2 ± 2.7 mg/dL, an LDL of 45.1 ± 2.4 mg/dL and a triglycerides of 94.3 ± 5.1 mg/dL.
Regarding `OCCN1C[C@H](O)[C@@H](O)[C@H](O)[C@H]1CO` [Miglitol, reference compound], the inhibition at 50 µg/mL in series [4] (read-out: %Inhibition alpha glucosidase) was found to be 87.9 ± 1.09%.

The values above are taken from paper PMC12316928, “Synthesis and evaluation of novel thiohydantoin derivatives for antidiabetic activity using in silico in vitro and in vivo methods” (Scientific Reports, 2025).
